Reference: ChEMBL document CHEMBL1201862, “PubChem BioAssay data set” (2004)
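Exposure lasted 48 hours, with cells grown in 96-well plates and compounds tested at five concentrations. At the GI50, growth is halved.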 Calls of active or inactive are those of the source. Rule as the data show it: active = GI50 up to about 1.1 µM and inactive = higher.

What was measured:
Test in all cases: growth of human tumour cells (NCI), 48 h
OVCAR-8 = tested on: OVCAR-8
T47D = tested on: T47D
NCI-H23 = tested on: NCI-H23
MOLT-4 = tested on: MOLT-4
UACC-62 = tested on: UACC-62
HT-29 = tested on: HT-29
RPMI-8226 = tested on: RPMI-8226
DU-145 = tested on: DU-145
TK-10 = tested on: TK-10
U-251 = tested on: U-251
OVCAR-3 = tested on: OVCAR-3
MDA-N = tested on: MDA-N
NCI/ADR-RES = tested on: NCI/ADR-RES
MDA-MB-435 = tested on: MDA-MB-435
HCT-116 = tested on: HCT-116
SF-539 = tested on: SF-539
BT-549 = tested on: BT-549
CCRF-CEM = tested on: CCRF-CEM
NCI-H226 = tested on: NCI-H226
EKVX = tested on: EKVX

CCOC1=NC(O)c2cccn2-c2sccc21 (stereo not drawn)
GI50 (OVCAR-8): > 100 µM (inactive) | GI50 (T47D): > 100 µM (inactive) | GI50 (NCI-H23): > 100 µM (inactive) | GI50 (MOLT-4): 51.6 µM (inactive) | GI50 (UACC-62): > 100 µM (inactive) | GI50 (HT-29): > 100 µM (inactive) | GI50 (RPMI-8226): 26.7 µM (inactive) | GI50 (DU-145): > 100 µM (inactive) | GI50 (TK-10): 82.4 µM (inactive) | GI50 (U-251): > 100 µM (inactive) | GI50 (OVCAR-3): > 100 µM (inactive) | GI50 (MDA-N): > 100 µM (inactive) | GI50 (NCI/ADR-RES): > 100 µM (inactive) | GI50 (MDA-MB-435): > 100 µM (inactive) | GI50 (HCT-116): > 100 µM (inactive) | GI50 (SF-539): > 100 µM (inactive)

O=P(c1ccccc1)(c1ccccc1)c1ccc2c(c1)OCCOCCOCCOCCO2
GI50 (OVCAR-8): > 100 µM (inactive) | GI50 (T47D): > 100 µM (inactive) | GI50 (NCI-H23): > 100 µM (inactive) | GI50 (MOLT-4): > 100 µM (inactive) | GI50 (UACC-62): > 100 µM (inactive) | GI50 (RPMI-8226): > 100 µM (inactive) | GI50 (BT-549): > 100 µM (inactive) | GI50 (DU-145): > 100 µM (inactive) | GI50 (CCRF-CEM): > 100 µM (inactive) | GI50 (TK-10): > 100 µM (inactive) | GI50 (NCI-H226): > 100 µM (inactive) | GI50 (MDA-N): > 100 µM (inactive) | GI50 (EKVX): > 100 µM (inactive) | GI50 (MDA-MB-435): > 100 µM (inactive) | GI50 (HCT-116): > 100 µM (inactive) | GI50 (SF-539): > 100 µM (inactive)

O=c1c2nc3ccccc3c(=O)n2ncn1-c1ccccc1Cl
GI50 (OVCAR-8): > 100 µM (inactive) | GI50 (T47D): > 100 µM (inactive) | GI50 (NCI-H23): > 100 µM (inactive) | GI50 (UACC-62): > 100 µM (inactive) | GI50 (HT-29): > 100 µM (inactive) | GI50 (RPMI-8226): > 100 µM (inactive) | GI50 (BT-549): > 100 µM (inactive) | GI50 (DU-145): > 100 µM (inactive) | GI50 (CCRF-CEM): > 100 µM (inactive) | GI50 (TK-10): > 100 µM (inactive) | GI50 (NCI-H226): > 100 µM (inactive) | GI50 (U-251): > 100 µM (inactive) | GI50 (OVCAR-3): > 100 µM (inactive) | GI50 (MDA-N): > 100 µM (inactive) | GI50 (EKVX): > 100 µM (inactive) | GI50 (MDA-MB-435): > 100 µM (inactive) | GI50 (HCT-116): > 100 µM (inactive) | GI50 (SF-539): > 100 µM (inactive)

CC(C)(C)c1ccc(OC(=O)Nc2ccc(O)c(C(=O)O)c2)cc1
GI50 (OVCAR-8): > 100 µM (inactive) | GI50 (T47D): > 100 µM (inactive) | GI50 (NCI-H23): > 100 µM (inactive) | GI50 (MOLT-4): > 100 µM (inactive) | GI50 (UACC-62): > 100 µM (inactive) | GI50 (HT-29): > 100 µM (inactive) | GI50 (RPMI-8226): > 100 µM (inactive) | GI50 (BT-549): > 100 µM (inactive) | GI50 (DU-145): > 100 µM (inactive) | GI50 (CCRF-CEM): > 100 µM (inactive) | GI50 (TK-10): > 100 µM (inactive) | GI50 (NCI-H226): > 100 µM (inactive) | GI50 (U-251): > 100 µM (inactive) | GI50 (OVCAR-3): > 100 µM (inactive) | GI50 (EKVX): > 100 µM (inactive) | GI50 (NCI/ADR-RES): > 100 µM (inactive) | GI50 (MDA-MB-435): > 100 µM (inactive) | GI50 (HCT-116): > 100 µM (inactive) | GI50 (SF-539): > 100 µM (inactive)

Oc1c2cccc1Cc1cccc3c1OCCOCCOCCOCCOc1c(cccc1Cc1cccc(c1O)C3)C2
GI50 (OVCAR-8): 85.7 µM (inactive) | GI50 (T47D): > 100 µM (inactive) | GI50 (NCI-H23): > 100 µM (inactive) | GI50 (MOLT-4): > 100 µM (inactive) | GI50 (UACC-62): 26.7 µM (inactive) | GI50 (HT-29): 54.3 µM (inactive) | GI50 (RPMI-8226): > 100 µM (inactive) | GI50 (BT-549): > 100 µM (inactive) | GI50 (DU-145): > 100 µM (inactive) | GI50 (CCRF-CEM): > 100 µM (inactive) | GI50 (TK-10): > 100 µM (inactive) | GI50 (NCI-H226): 22.5 µM (inactive) | GI50 (U-251): > 100 µM (inactive) | GI50 (OVCAR-3): 0.897 µM (active) | GI50 (EKVX): > 100 µM (inactive) | GI50 (NCI/ADR-RES): 39.3 µM (inactive) | GI50 (MDA-MB-435): > 100 µM (inactive) | GI50 (HCT-116): 7.43 µM (inactive) | GI50 (SF-539): 94.6 µM (inactive)

Cc1ccc2c(O)cc(-c3ccc(Cl)s3)nc2n1
GI50 (OVCAR-8): 1.44 µM (inactive) | GI50 (T47D): 1.04 µM (active) | GI50 (NCI-H23): 0.889 µM (active) | GI50 (MOLT-4): 0.488 µM (active) | GI50 (UACC-62): 0.643 µM (active) | GI50 (HT-29): 1.39 µM (inactive) | GI50 (RPMI-8226): 0.308 µM (active) | GI50 (DU-145): 3.57 µM (inactive) | GI50 (CCRF-CEM): 0.471 µM (active) | GI50 (TK-10): 8.87 µM (inactive) | GI50 (NCI-H226): 0.916 µM (active) | GI50 (U-251): 0.855 µM (active) | GI50 (OVCAR-3): 1.1 µM (active) | GI50 (MDA-N): 0.136 µM (active) | GI50 (EKVX): 6.92 µM (inactive) | GI50 (NCI/ADR-RES): 0.409 µM (active) | GI50 (MDA-MB-435): 0.223 µM (active) | GI50 (HCT-116): 0.552 µM (active) | GI50 (SF-539): 0.538 µM (active)

COC(=O)C1C2CC3C1C3C2C(=O)OC (stereo not drawn)
GI50 (OVCAR-8): > 100 µM (inactive) | GI50 (T47D): > 100 µM (inactive) | GI50 (NCI-H23): > 100 µM (inactive) | GI50 (MOLT-4): > 100 µM (inactive) | GI50 (UACC-62): > 100 µM (inactive) | GI50 (HT-29): > 100 µM (inactive) | GI50 (DU-145): > 100 µM (inactive) | GI50 (CCRF-CEM): > 100 µM (inactive) | GI50 (TK-10): > 100 µM (inactive) | GI50 (NCI-H226): > 100 µM (inactive) | GI50 (U-251): > 100 µM (inactive) | GI50 (OVCAR-3): > 100 µM (inactive) | GI50 (MDA-N): > 100 µM (inactive) | GI50 (EKVX): > 100 µM (inactive) | GI50 (NCI/ADR-RES): > 100 µM (inactive) | GI50 (MDA-MB-435): > 100 µM (inactive) | GI50 (HCT-116): > 100 µM (inactive) | GI50 (SF-539): > 100 µM (inactive)

CN(C)c1ccc(/C=C2\C[N+](C)(C)C/C(=C\c3ccc(N(C)C)cc3)C2=O)cc1
GI50 (OVCAR-8): 23.9 µM (inactive) | GI50 (T47D): 16.5 µM (inactive) | GI50 (NCI-H23): 17.7 µM (inactive) | GI50 (MOLT-4): 13.6 µM (inactive) | GI50 (UACC-62): 13.6 µM (inactive) | GI50 (HT-29): 9.18 µM (inactive) | GI50 (RPMI-8226): 3.47 µM (inactive) | GI50 (BT-549): 10.5 µM (inactive) | GI50 (DU-145): 31.3 µM (inactive) | GI50 (CCRF-CEM): 9.53 µM (inactive) | GI50 (TK-10): 78.7 µM (inactive) | GI50 (NCI-H226): 30.5 µM (inactive) | GI50 (U-251): 6.27 µM (inactive) | GI50 (OVCAR-3): 5.9 µM (inactive) | GI50 (EKVX): 38 µM (inactive) | GI50 (MDA-MB-435): 12.1 µM (inactive) | GI50 (HCT-116): 8.93 µM (inactive) | GI50 (SF-539): 21.1 µM (inactive)
